Experimental findings from US20140336187A1, “METHODS FOR TREATING LEISHMANIASIS” (HOWARD UNIVERSITY, priority 2011, published 2014) are described below.

Data set [1] concerns L. donovani amastigotes. The data set can be described thus: Antileishmanial activity on L. donovani amastigotes (resazurin assay). In kind it is cell-based, Leishmania donovani. The note with it: for IC50: Leishmania donovani, L. donovani amastigotes, 48 hrs exposure, resazurin assay, means ± S.E., read-out: IC50 (μM) Amastigotes; for SI Values Amastigotes: SI = IC50 (mouse fibroblast) ÷ IC50 (amastigotes). On the procedure: Amastigotes were grown in MAA/20 medium (Amastigote medium consisted of: M199 medium supplemented with 0.5% Tryptone broth, 0.01 mM bathocuproinedisulfonic acid, 0.108 mM L-Cysteine, 15 mM D-glucose, 0.685 mM L-glutamine, and 0.025 mM Hemin and 20% fetal calf serum (FCS) at a pH of 5.5).
Amastigotes were plated at a concentration of 2×10^5 cells/[…] 24 hrs before treatment with various compounds. Amastigotes were treated with dilutions of compounds in 96-well microtitre plates. Dilutions of compounds ranging from 0.03 μM to 44 μM were prepared and added to amastigotes. Amastigotes were exposed to compounds for 48 hrs and were incubated at 37° C. […] After the incubation period, 20 μl Alamar Blue (12.5 mg resazurin dissolved in 100 ml distilled water) (Mikes and Steverding, 2000) were added to each well and plates were incubated for another 2 hrs. […] Decrease of fluorescence (inhibition) was expressed as percentage of the fluorescence of control cultures and was plotted against the concentrations of compounds. The IC50 values were calculated from the sigmoidal inhibition curves. Amphotericin B was used as a reference drug.
(In general: The colour change of resazurin is a common sign of viable cells or microbes.)

Data set [2] deals with L. donovani promastigotes. The data set can be described thus: Antileishmanial activity on L. donovani promastigotes (resazurin cell viability assay). The following applies: for IC50: L. donovani promastigotes, resazurin assay, 0.03 to 44 μM, means ± S.E. of three experiments, read-out: IC50 (μM) Promastigotes; for SI Values Promastigotes: SI = IC50 (mouse fibroblast) ÷ IC50 (promastigotes). Type of data set: cell-based, Leishmania donovani. On the procedure: Approximately 5×10^5 promastigotes/ml of L. donovani Khartum strain were inoculated into Yeager's Liver infusion tryptose (YLIT) medium or Brain Heart Infusion (BHI) broth (Difco), supplemented with glucose (2.5 mg/ml), 50 U/ml Pen-Strep and 0.005 mM Hemin at 25-26° C. and subcultured bi-weekly, Mikus et al., Parasitol Int., 48(3):265-9 (2000) (Mikus and Steverding, 2000).
(§1) The Leishmanicidal properties of fifteen naphthoquinone compounds (FIG. 1) on L. donovani promastigotes proliferation were assessed by the resazurin cell viability assay. Promastigotes from axenic culture were harvested during the exponential phase of growth (at least 5-day old culture), incubated at a concentration of 2×10^5 cells/200 μl with and without dilutions of compounds in 96-well microtitre plates. Dilutions of compounds covering 0.03 μM to 44 μM were prepared. […] 20 μl Alamar Blue (12.5 mg resazurin dissolved in 100 ml distilled water (Sigma #R7017)) (Mikes and Steverding, 2000) were added to each well and plates were incubated for another 2 hrs. […] Decrease in fluorescence (inhibition), were expressed as percentage of the fluorescence of control cultures and were plotted against the concentrations of compounds. The IC50 values were calculated from the sigmoidal inhibition curves.

Data set [3] deals with L. donovani promastigotes. Briefly: Dose and time-dependent inhibitory effect on L. donovani promastigotes (2, 4, 6, 24 hours exposure). In kind it is cell-based, Leishmania donovani. The note with it: Leishmania donovani, promastigotes, means ± S.E. On the procedure: as §1
A time and dose-dependent inhibitory effect of all 15 imido-substituted naphthoquinone compounds was assessed on their activity on promastigotes of L. donovani. Promastigotes were plated in 96-well plates and incubated in different concentrations of each compound (0.03 to 44 μM), incubated for two hours and viabilities assayed by the resazurin assay. A two hour exposure was assessed by calculation of IC50 values of each compound. Values are means±S.E. (Standard Error).
A time and dose-dependent inhibitory effect of all 15 imido-substituted naphthoquinone compounds was assessed on their activity on promastigotes of L. donovani. Promastigotes were plated in 96-well plates and incubated in different concentrations of each compound (0.03 to 44 μM), incubated for four hours and cell viabilities assayed by the resazurin assay. A four hour exposure was assessed by calculation of IC50 values of each compound. Values are means±S.E. (Standard Error).
Promastigotes were plated in 96-well plates and incubated in different concentrations of each compound (0.03 to 44 μM), incubated for six hours and cell viabilities assayed by the resazurin assay. A six hour exposure was assessed by calculation of IC50 values of each compound. Values are means±S.E. (Standard error).
A time and dose-dependent inhibitory effect of all 15 imido-substituted naphthoquinone compounds was assessed on their activity on promastigotes of L. donovani. Promastigotes were plated in 96-well plates and incubated in different concentrations of each compound (0.03 to 44 μM), incubated for twenty four hours and cell viabilities assayed by the resazurin assay. A twenty four hour exposure was assessed by calculation of IC50 values of each compound. Values are means±S.E. (Standard Error).

The subject of data set [4] is NIH 3T3 BALB/c mouse fibroblast cell line. Briefly: Cytotoxic assessment on NIH 3T3 BALB/c mouse fibroblasts (resazurin assay). The following applies: read-out: IC50 (μM) Fibroblasts; NIH 3T3 BALB/c mouse fibroblasts; 48 hrs; resazurin assay; means ± S.E.
Method: Fibroblasts cells (4×10^4 cells/nil and adding 100 μl per well) were incubated with different concentrations of the naphthoquinone compounds (FIGS. 1) (3, 7, 13, 29, 33, and 44 μM) for 48 hrs after which viability of live fibroblast cells was determined by the Resazurin Method using a microplate reader (Bio-Tek Instruments EL311).
NIH 3T3 mouse fibroblasts were maintained in Roswell Park Memorial Institute (RPMI) medium supplemented with 10% Fetal calf serum, 50 units/ml penicillin, 50 units/ml streptomycin B in a humidified incubator at 37° C. in the presence of 5% CO2 (Scala et al., 2010).
Assays were performed to assess the cytotoxicity of these compounds in 96-well microtiter plates, with each well containing 100 μl of RPMI medium supplemented with 10% bovine calf scrum with 50 U/ml Pen-Strep. The cells were plated at a concentration of 4×10^3 cells/well (4×10^4 cells/ml). Fibroblast cells were then incubated with compounds for 48 hrs and inspected under an inverted microscope to assure growth of the controls and sterile conditions. 10 μl of resazurin solution (12.5 mg resazurin dissolved in 100 nil distilled water) were added to each well and the plates were incubated for another 2 hrs. The plates were read with a microplate reader at 570 nm. Experiments were done at least 3 times in triplicates (Scala et al., 2010).
Cell viability was determined using Resazurin Assay. The IC50 values were calculated and expressed as means±S.E (standard error).
Where [5] appears, read: read-out: Antileishmanial Activity IC50 (μM) 2 hours, 2 hours exposure.
The mark [6] stands for this setting: read-out: Antileishmanial Activity IC50 (μM) 4 hours, 4 hours exposure.
Where [7] appears, read: 6 hours exposure, read-out: Antileishmanial Activity IC50 (μM) 6 hours.
[8] abbreviates: 24 hours exposure, read-out: Antileishmanial Activity IC50 (μM) 24 hours.

Values joined by “and” are separate entries in the source; they are usually repeats but may differ in a detail not shown here. Equal entries are not always repeated.

In turn, `COc1ccc(C(=O)N(C(=O)c2ccc(OC)cc2)C2=C(Cl)C(=O)c3ccccc3C2=O)cc1` [IMDNQ9, 2-bis-(4-methoxybenzoyl)amino-3-chloro-1,4-naphthoquinone] yielded a melting point of 283 to 287 °C. In addition, in data set [1], the IC50 turned out to be 4.67 ± 0.8 µM; the “SI Values Amastigotes” value is 0.73±0.13 and 0.73. Further, the concentration for half-maximal inhibition (IC50) in data set [2] (Leishmania donovani) was determined as 5.64 ± 0.9 µM. In addition, the “SI Values Promastigotes” value in data set [2] is 0.60±0.08 and 0.60. The IC50 in data set [3] (setting [5]) was 77.3 ± 119 µM. For the same molecule, in data set [3] (setting [6]), the IC50 amounted to 23.3 ± 9.2 µM. Besides, the IC50 in data set [3] (setting [7]) was determined as 123 ± 35.1 µM. Further, the IC50 in data set [3] (setting [8]) stood at 7.23 ± 0.7 µM. In addition, the IC50 in data set [4] was found to be 3.41 ± 1.1 µM.

The molecule `O=C1C(Cl)=C(N(C(=O)c2ccc(Cl)cc2)C(=O)c2ccc(Cl)cc2)C(=O)c2ccccc21` [IMDNQ1, 4-Chloro-N-(4-chlorobenzoyl)-N-(3-chloro-1,4-dioxo-1,4-dihydronaphthalen-2-yl)-benzamide] displayed a melting point of 212 to 213 °C. For the same molecule, in data set [1], the IC50 was determined as 11.8 ± 9.7 µM; the “SI Values Amastigotes” value was 0.35±0.42 and 0.35. Also, the IC50 in data set [2] (Leishmania donovani) came out at 1.84 ± 0.9 µM. Also, the “SI Values Promastigotes” value in data set [2] is 2.23±1.09 and 2.23. For the same molecule, in data set [3] (setting [5]), the IC50 was determined as 5.53 ± 0.3 µM. Besides, in data set [3] (setting [6]), the IC50 came to 1100 ± 50.3 µM. Moreover, the IC50 in data set [3] (setting [7]) stood at 19.2 ± 18.4 µM. Besides, the IC50 in data set [3] (setting [8]) worked out at 5.28 ± 1.8 µM. Also, the IC50 in data set [4] stood at 4.1 ± 3.5 µM.

Molecule `O=C1C(Br)=C(N(C(=O)c2ccccc2Cl)C(=O)c2ccccc2Cl)C(=O)c2ccccc21` [IMDNQ5, N-(3-Bromo-1,4-dioxo-1,4-dihydronaphthalen-2-yl)-2-chloro-N-(2-chlorobenzoyl)-benzamide] displayed a melting point of 232 to 234 °C. Besides, in data set [1], the IC50 was 4.67 µM; the “SI Values Amastigotes” value was 1.01±0.21 and 1.01. Further, the IC50 in data set [2] (Leishmania donovani) was 31.3 µM. Further, the “SI Values Promastigotes” value in data set [2] is 0.15 and 0.15±0.3. Moreover, the IC50 in data set [3] (setting [5]) is 19 ± 1.5 µM. Further, the IC50 in data set [3] (setting [6]) was 0.57 µM. In addition, the IC50 in data set [3] (setting [7]) came out at 1.66 ± 0.5 µM. In addition, the 50% inhibitory concentration (IC50) in data set [3] (setting [8]) stood at 5.85 ± 2.2 µM. For the same molecule, the IC50 in data set [4] was 4.7 µM.

Consider `O=C1C(Cl)=C(N(C(=O)c2ccc(F)cc2)C(=O)c2ccc(F)cc2)C(=O)c2ccccc21` [IMDNQ3, N-(3-Chloro-1,4-dioxo-1,4-dihydronaphthalen-2-yl)-4-fluoro-N-(4-fluorobenzoyl)-benzamide], for which the melting point lay in the range of 284 to 286 °C. In data set [1], the IC50 came to 4.1 µM; the “SI Values Amastigotes” value is 6.06±1.77 and 6.06. In addition, in data set [2] (Leishmania donovani), the IC50 was 10.8 µM. The “SI Values Promastigotes” value in data set [2] is 2.30±1.05 and 2.30. Also, the IC50 in data set [3] (setting [5]) came to 11 ± 12.9 µM. The IC50 in data set [3] (setting [6]) was determined as 41.35 ± 0.21 µM. Also, the IC50 in data set [3] (setting [7]) stood at 2.32 ± 1.9 µM. Further, the IC50 in data set [3] (setting [8]) was 3.23 ± 5.3 µM. The IC50 in data set [4] was determined as 24.8 µM.

The molecule `COc1cc(C(=O)N(C(=O)c2cc(OC)c(OC)c(OC)c2)C2=C(Cl)C(=O)c3ccccc3C2=O)cc(OC)c1OC` [IMDNQ11, 2-bis-(3,4,5-trimethoxybenzoyl)amino-3-chloro-1,4-naphthoquinone] registered a melting point of 171 to 172 °C. In data set [1], the IC50 was determined as 27.3 µM. In data set [2], the IC50 is 11.85 ± 0.001 µM; the “SI Values Promastigotes” value is 0.28±0.01 and 0.28. Further, in data set [2] (Leishmania donovani), the IC50 amounted to 22.9 ± 0.9 µM. For the same molecule, in data set [3] (setting [5]), the IC50 is 198 ± 16.8 µM. The IC50 in data set [3] (setting [6]) stood at 22.7 ± 14.2 µM. The IC50 in data set [3] (setting [7]) is 4.06 ± 1.4 µM. The IC50 in data set [3] (setting [8]) came to 8.82 ± 2 µM. In addition, the half-maximal inhibitory concentration (IC50) in data set [4] came out at 6.41 ± 2.9 µM.

As a reminder, the IC50 is the concentration that inhibits the measured activity by half. By melting point is commonly meant the temperature, or range, at which the solid turns liquid.
